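Exposure lasted 48 hours, with cells grown in 96-well plates and compounds tested at five concentrations. Here, GI50 denotes the concentration required for 50% inhibition of growth. The concentration for full growth arrest is given as TGI.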
How the values were obtained:
Test in all cases: NCI tumour cell line growth inhibition, 48 h
SNB-75 CNS = tested on: SNB-75 CNS
TK-10 renal = tested on: TK-10 renal
EKVX NSCLC = tested on: EKVX NSCLC
SK-OV-3 ovarian = tested on: SK-OV-3 ovarian
COLO 205 colon = tested on: COLO 205 colon
NCI-H23 lung = tested on: NCI-H23 lung
CAKI-1 renal = tested on: CAKI-1 renal
HS 578T breast = tested on: HS 578T breast
MCF7 breast = tested on: MCF7 breast
LOX IMVI melanoma = tested on: LOX IMVI melanoma
OVCAR-3 ovarian = tested on: OVCAR-3 ovarian
A549 NSCLC = tested on: A549 NSCLC
OVCAR-8 ovarian = tested on: OVCAR-8 ovarian
HL-60(TB) leukemia = tested on: HL-60(TB) leukemia
SK-MEL-5 melanoma = tested on: SK-MEL-5 melanoma
IGROV1 ovarian = tested on: IGROV1 ovarian
U251 CNS = tested on: U251 CNS
BT-549 breast = tested on: BT-549 breast
SF-539 CNS = tested on: SF-539 CNS
HCC-2998 colon = tested on: HCC-2998 colon
HCT-15 colon = tested on: HCT-15 colon
SK-MEL-2 melanoma = tested on: SK-MEL-2 melanoma
MDA-MB-435 = tested on: MDA-MB-435
NCI-H522 lung = tested on: NCI-H522 lung
OVCAR-4 ovarian = tested on: OVCAR-4 ovarian
MDA-MB-468 breast = tested on: MDA-MB-468 breast
MALME-3M melanoma = tested on: MALME-3M melanoma
CCRF-CEM leukemia = tested on: CCRF-CEM leukemia
SF-295 CNS = tested on: SF-295 CNS
MOLT-4 leukemia = tested on: MOLT-4 leukemia
M14 melanoma = tested on: M14 melanoma
HOP-92 NSCLC = tested on: HOP-92 NSCLC
RXF 393 renal = tested on: RXF 393 renal
HOP-62 NSCLC = tested on: HOP-62 NSCLC
SN12C renal = tested on: SN12C renal
DU-145 prostate = tested on: DU-145 prostate
ACHN renal = tested on: ACHN renal
UACC-257 melanoma = tested on: UACC-257 melanoma
NCI/ADR-RES ovarian = tested on: NCI/ADR-RES ovarian
KM12 colon = tested on: KM12 colon
SF-268 CNS = tested on: SF-268 CNS
UACC-62 melanoma = tested on: UACC-62 melanoma
T-47D breast = tested on: T-47D breast
A498 renal = tested on: A498 renal
HCT-116 colon = tested on: HCT-116 colon
K-562 leukemia = tested on: K-562 leukemia
SR leukemia = tested on: SR leukemia
PC-3 prostate = tested on: PC-3 prostate
SNB-19 CNS = tested on: SNB-19 CNS
NCI-H226 lung = tested on: NCI-H226 lung
NCI-H460 lung = tested on: NCI-H460 lung
SK-MEL-28 melanoma = tested on: SK-MEL-28 melanoma
786-0 renal = tested on: 786-0 renal
OVCAR-5 ovarian = tested on: OVCAR-5 ovarian
RPMI-8226 leukemia = tested on: RPMI-8226 leukemia
UO-31 renal = tested on: UO-31 renal
HT29 colon = tested on: HT29 colon
MDA-MB-231 breast = tested on: MDA-MB-231 breast
SW-620 colon = tested on: SW-620 colon

## CC1=C2C(=C[C@@](C)(COCOCCCl)[C@@H]2O)C(=O)[C@](C)(O)C12CC2
SNB-75 CNS
  GI50: 0.241 µM
  TGI: 1.25 µM
TK-10 renal
  GI50: 0.429 µM
EKVX NSCLC
  GI50: 0.285 µM
  TGI: 0.87 µM
SK-OV-3 ovarian
  GI50: 0.415 µM
  TGI: 2.17 µM
COLO 205 colon
  GI50: 0.258 µM
  TGI: 0.924 µM
NCI-H23 lung
  GI50: 0.105 µM
  TGI: 0.304 µM
CAKI-1 renal
  GI50: 0.263 µM
  TGI: 2.1 µM
HS 578T breast
  GI50: 0.598 µM
  TGI: 4 µM
MCF7 breast
  GI50: 0.045 µM
  TGI: 3.18 µM
LOX IMVI melanoma
  GI50: 0.137 µM
  TGI: 0.493 µM
OVCAR-3 ovarian
  GI50: 0.265 µM
  TGI: 0.765 µM
A549 NSCLC
  GI50: 0.322 µM
  TGI: 6.86 µM
OVCAR-8 ovarian
  GI50: 0.211 µM
  TGI: 0.79 µM
HL-60(TB) leukemia
  GI50: 0.126 µM
  TGI: 2.13 µM
SK-MEL-5 melanoma
  GI50: 0.209 µM
  TGI: 0.499 µM
IGROV1 ovarian
  GI50: 0.229 µM
  TGI: 0.961 µM
U251 CNS
  GI50: 0.113 µM
  TGI: 19.9 µM
BT-549 breast
  GI50: 0.243 µM
  TGI: 0.786 µM
SF-539 CNS
  GI50: 0.202 µM
  TGI: 0.447 µM
HCC-2998 colon
  GI50: 0.199 µM
  TGI: 0.495 µM
HCT-15 colon
  GI50: 0.0644 µM
  TGI: 2.55 µM
SK-MEL-2 melanoma
  GI50: 0.184 µM
  TGI: 0.35 µM
MDA-MB-435
  GI50: 0.322 µM
  TGI: 1.09 µM
NCI-H522 lung
  GI50: 0.184 µM
  TGI: 0.495 µM
OVCAR-4 ovarian
  GI50: 0.265 µM
  TGI: 0.86 µM
MDA-MB-468 breast
  GI50: 0.123 µM
  TGI: 0.299 µM
MALME-3M melanoma
  GI50: 0.229 µM
  TGI: 0.509 µM
CCRF-CEM leukemia
  GI50: 0.626 µM
  TGI: > 33.8 µM
SF-295 CNS
  GI50: 0.234 µM
  TGI: 7.76 µM
MOLT-4 leukemia
  GI50: 0.141 µM
  TGI: > 48.3 µM
M14 melanoma
  GI50: 0.285 µM
  TGI: 0.99 µM
HOP-92 NSCLC
  GI50: 0.248 µM
  TGI: 0.685 µM
RXF 393 renal
  GI50: 0.154 µM
  TGI: 0.351 µM
HOP-62 NSCLC
  GI50: 0.344 µM
  TGI: 1.88 µM
SN12C renal
  GI50: 0.299 µM
  TGI: 1.2 µM
DU-145 prostate
  GI50: 0.142 µM
  TGI: 1.51 µM
ACHN renal
  GI50: 0.0554 µM
  TGI: 0.387 µM
UACC-257 melanoma
  GI50: 0.647 µM
  TGI: 3.97 µM
NCI/ADR-RES ovarian
  GI50: 0.16 µM
  TGI: 0.438 µM
KM12 colon
  GI50: 0.35 µM
  TGI: 4.83 µM
SF-268 CNS
  GI50: 0.305 µM
  TGI: 1.7 µM
UACC-62 melanoma
  GI50: 0.198 µM
  TGI: 0.429 µM
T-47D breast
  GI50: 0.506 µM
  TGI: 5.69 µM
A498 renal
  GI50: 1.61 µM
  TGI: 4.99 µM
HCT-116 colon
  GI50: 0.128 µM
  TGI: > 41.5 µM
K-562 leukemia
  GI50: 0.445 µM
  TGI: > 100 µM
SR leukemia
  GI50: 0.0647 µM
  TGI: > 100 µM
PC-3 prostate
  GI50: 0.23 µM
SNB-19 CNS
  GI50: 0.346 µM
  TGI: 2.46 µM
NCI-H226 lung
  GI50: 0.845 µM
  TGI: 4.01 µM
NCI-H460 lung
  GI50: 0.113 µM
  TGI: 0.656 µM
SK-MEL-28 melanoma
  GI50: 0.389 µM
  TGI: 1.31 µM
786-0 renal
  GI50: 0.638 µM
  TGI: 1.98 µM
OVCAR-5 ovarian
  GI50: 0.178 µM
  TGI: 1.07 µM
RPMI-8226 leukemia
  GI50: 3.75 µM
  TGI: > 58.3 µM
UO-31 renal
  GI50: 0.186 µM
  TGI: 0.549 µM
HT29 colon
  GI50: 0.174 µM
MDA-MB-231 breast
  GI50: 0.294 µM
  TGI: 1.03 µM

## C=C1CC[C@@H]2[C@]3(C)COC(c4cn[nH]c4-c4ccc(C)cc4)O[C@@H]3CC[C@@]2(C)[C@@H]1C/C=C1/C(=O)OCC1O (some centres undefined)
SNB-75 CNS
  GI50: 20.6 µM
  TGI: > 100 µM
TK-10 renal
  GI50: 22.5 µM
  TGI: 48.3 µM
SW-620 colon
  GI50: 4.6 µM
  TGI: 17.5 µM
EKVX NSCLC
  GI50: 18.2 µM
  TGI: 43.8 µM
SK-OV-3 ovarian
  GI50: 26.5 µM
  TGI: 74.8 µM
COLO 205 colon
  GI50: 15.5 µM
  TGI: 29.9 µM
NCI-H23 lung
  GI50: 14 µM
  TGI: 27 µM
CAKI-1 renal
  GI50: 12.5 µM
  TGI: > 100 µM
HS 578T breast
  GI50: 63.9 µM
  TGI: > 100 µM
MCF7 breast
  GI50: 4.88 µM
  TGI: 19.4 µM
LOX IMVI melanoma
  GI50: 3.76 µM
  TGI: 15.7 µM
OVCAR-3 ovarian
  GI50: 3.39 µM
  TGI: 13.8 µM
A549 NSCLC
  GI50: 26.4 µM
  TGI: > 100 µM
OVCAR-8 ovarian
  GI50: 9.29 µM
  TGI: > 100 µM
HL-60(TB) leukemia
  GI50: 3.38 µM
  TGI: 56.4 µM
SK-MEL-5 melanoma
  GI50: 12.6 µM
  TGI: 25.3 µM
IGROV1 ovarian
  GI50: 17.5 µM
  TGI: 39.7 µM
U251 CNS
  GI50: 11.9 µM
  TGI: 28.6 µM
BT-549 breast
  GI50: 11.1 µM
  TGI: 37.8 µM
SF-539 CNS
  GI50: 12.7 µM
  TGI: 25.3 µM
HCC-2998 colon
  GI50: 16.7 µM
  TGI: 30.4 µM
HCT-15 colon
  GI50: 10.1 µM
  TGI: 25.5 µM
SK-MEL-2 melanoma
  GI50: 13.9 µM
  TGI: 30.4 µM
MDA-MB-435
  GI50: 7.38 µM
  TGI: 73.9 µM
NCI-H522 lung
  GI50: 7.01 µM
  TGI: 22.5 µM
OVCAR-4 ovarian
  GI50: 64.8 µM
  TGI: > 100 µM
MDA-MB-468 breast
  GI50: 6.94 µM
  TGI: 22.1 µM
MALME-3M melanoma
  GI50: 15.8 µM
  TGI: 33.5 µM
CCRF-CEM leukemia
  GI50: 2.85 µM
  TGI: > 100 µM
SF-295 CNS
  GI50: 18.2 µM
  TGI: 36.5 µM
MOLT-4 leukemia
  GI50: 5.14 µM
  TGI: > 100 µM
M14 melanoma
  GI50: 12.6 µM
  TGI: 26.2 µM
HOP-92 NSCLC
  GI50: 17.8 µM
  TGI: 42.5 µM
RXF 393 renal
  GI50: 12.5 µM
  TGI: 25 µM
HOP-62 NSCLC
  GI50: 21.7 µM
  TGI: 75.2 µM
SN12C renal
  GI50: 17.3 µM
  TGI: 42.8 µM
DU-145 prostate
  GI50: 24.6 µM
  TGI: > 100 µM
ACHN renal
  GI50: 15.7 µM
  TGI: 36.3 µM
UACC-257 melanoma
  GI50: 15.2 µM
  TGI: 44.4 µM
KM12 colon
  GI50: 13.7 µM
  TGI: 35.8 µM
SF-268 CNS
  GI50: 34.7 µM
  TGI: > 100 µM
UACC-62 melanoma
  GI50: 13.3 µM
  TGI: 27 µM
T-47D breast
  GI50: 13.9 µM
  TGI: > 100 µM
A498 renal
  GI50: 21 µM
  TGI: 37.2 µM
HCT-116 colon
  GI50: 5.33 µM
  TGI: 20.6 µM
K-562 leukemia
  GI50: 5.55 µM
  TGI: > 100 µM
SR leukemia
  GI50: 7.16 µM
  TGI: > 100 µM
PC-3 prostate
  GI50: 21.7 µM
  TGI: > 100 µM
SNB-19 CNS
  GI50: 14.5 µM
  TGI: 27.6 µM
NCI-H226 lung
  GI50: 17.8 µM
  TGI: 44.7 µM
NCI-H460 lung
  GI50: 20 µM
  TGI: 46.9 µM
SK-MEL-28 melanoma
  GI50: 12.8 µM
  TGI: 27 µM
786-0 renal
  GI50: 16.7 µM
  TGI: 33.2 µM
OVCAR-5 ovarian
  GI50: 15.5 µM
  TGI: 32.6 µM
RPMI-8226 leukemia
  GI50: 4.73 µM
  TGI: > 100 µM
UO-31 renal
  GI50: 12.5 µM
  TGI: 25.7 µM
HT29 colon
  GI50: 13.1 µM
  TGI: 45.8 µM
MDA-MB-231 breast
  GI50: 19.2 µM
  TGI: 43.5 µM
